Test results from patent US20200188466A1, “COMPOSITIONS OF SCHISANDRA EXTRACTS AND METHODS THEREOF” (Reyoung Corporation, priority 2017, published 2020).

Test: Toxicological study: serum chemistry after celastrol with and without Schisandrin A
Format: in vivo, Sprague Dawley rats
Details: rats, 24 hours after celastrol 1.8 mg/kg oral
Method: 42 Male Sprague Dawley rats (weight, 210-250 g) were maintained on a 12-hour light/dark cycle with free access to water and lab chow for 10-14 h prior to the experiment. Rats were randomly divided into 7 groups (n=6 each) and groups 2-7 received 0 mg/kg, 5.5 mg/kg, and 11.0 mg/kg, 22.0 mg/kg, 44.0 mg/kg and 88.0 mg/kg of Schisandrin A in 1% CMC-Na (300-800 cps) via oral administration, respectively. After 5 minutes, all the groups received 1.8 mg/kg of celastrol in a solution of 2% DMSO-98% sterile water via oral administration.
At 24 hours of celastrol treatment, blood was collected from the rats in plasma kinetic study.

[1] = Group 1, no Schisandrin A dose stated
[2] = Group 2, Schisandrin A 0 mg/kg oral
[3] = Group 3, Schisandrin A 5.5 mg/kg oral
[4] = Group 4, Schisandrin A 11.0 mg/kg oral
[5] = Group 5, Schisandrin A 22.0 mg/kg oral
[6] = Group 6, Schisandrin A 44.0 mg/kg oral
[7] = Group 7, Schisandrin A 88.0 mg/kg oral

CC1=C(O)C(=O)C=C2C1=CC=C1[C@@]2(C)CC[C@@]2(C)[C@@H]3C[C@](C)(C(=O)O)CC[C@]3(C)CC[C@]12C [celastrol]
Serum ALT [1]: 54.5 ± 6.7 U/L
Serum AST [1]: 100.0 ± 7.0 U/L
Serum creatinine [1]: 0.48 ± 0.01 mg/dL
Serum urea [1]: 19.6 ± 2.7 mg/dL
Serum ALT [2]: 51.2 ± 3.5 U/L
Serum AST [2]: 92.0 ± 6.0 U/L
Serum creatinine [2]: 0.49 ± 0.05 mg/dL
Serum urea [2]: 20.1 ± 1.8 mg/dL
Serum ALT [3]: 54.5 ± 5.7 U/L
Serum AST [3]: 91.0 ± 4.0 U/L
Serum creatinine [3]: 0.48 ± 0.02 mg/dL
Serum urea [3]: 19.4 ± 2.5 mg/dL
Serum ALT [4]: 52.5 ± 5.8 U/L
Serum AST [4]: 91.0 ± 9.0 U/L
Serum creatinine [4]: 0.49 ± 0.02 mg/dL
Serum urea [4]: 18.3 ± 1.5 mg/dL
Serum ALT [5]: 49.3 ± 6.1 U/L
Serum AST [5]: 106.0 ± 14.0 U/L
Serum creatinine [5]: 0.50 ± 0.02 mg/dL
Serum urea [5]: 16.5 ± 1.5 mg/dL
Serum ALT [6]: 52.4 ± 8.3 U/L
Serum AST [6]: 111.0 ± 40.0 U/L
Serum creatinine [6]: 0.49 ± 0.01 mg/dL
Serum urea [6]: 17.9 ± 4.0 mg/dL
Serum ALT [7]: 53.4 ± 7.1 U/L
Serum AST [7]: 92.0 ± 9.0 U/L
Serum creatinine [7]: 0.49 ± 0.03 mg/dL
Serum urea [7]: 18.8 ± 3.4 mg/dL
